One assay has as its target T1, KRas^WT (Homo sapiens, UniProt P01116).
T1 construct: […]; biotin (biotinylated); purchased Accelegan Inc
The experiment in a line: KRas binding assay (TR-FRET displacement of Cy5 labelled tracer). Background: In TR-FRET formats the signal depends on donor and acceptor labels being close together.

The target of another assay is T2, KRas^G12A (Homo sapiens, UniProt P01116, G12A).
T2 construct: […]; biotin (biotinylated); purchased Accelegan Inc
Described as above.

Another assay concerns the target T3, KRas^G12D (Homo sapiens, UniProt P01116, G12D).
T3 construct: […]; biotin (biotinylated); purchased Accelegan Inc
The assay is described as above.

The target in another assay is T4, KRas^G12R (Homo sapiens, UniProt P01116, G12R).
T4 construct: […]; biotin (biotinylated); purchased Accelegan Inc
T4 sequence (P01116 1-169 isoform P01116-2 G12R): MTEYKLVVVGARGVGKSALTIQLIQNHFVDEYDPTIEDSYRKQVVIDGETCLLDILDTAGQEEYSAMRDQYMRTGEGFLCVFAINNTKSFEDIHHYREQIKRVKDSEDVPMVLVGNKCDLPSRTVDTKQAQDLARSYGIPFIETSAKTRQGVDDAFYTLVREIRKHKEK
The assay is described as above.

A further assay has as its target T5, KRas^G12S (Homo sapiens, UniProt P01116, G12S).
T5 construct: […]; biotin (biotinylated); purchased Accelegan Inc
The description is as above.

Another assay deals with T6, KRas^G12V (Homo sapiens, UniProt P01116, G12V).
T6 construct: […]; biotin (biotinylated); purchased Accelegan Inc
T6 sequence (P01116 1-169 isoform P01116-2 G12V): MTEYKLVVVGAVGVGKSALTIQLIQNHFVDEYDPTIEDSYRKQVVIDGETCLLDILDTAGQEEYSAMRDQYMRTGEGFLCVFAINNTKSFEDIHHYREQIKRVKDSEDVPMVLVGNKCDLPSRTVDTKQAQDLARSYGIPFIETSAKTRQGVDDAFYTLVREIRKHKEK
Described as above.

For another assay, the target named is KRas^G12C (Homo sapiens, UniProt P01116, G12C). The experiment in a line: biochemical.
Sequence of KRas^G12C (P01116 1-169 isoform P01116-2 G12C): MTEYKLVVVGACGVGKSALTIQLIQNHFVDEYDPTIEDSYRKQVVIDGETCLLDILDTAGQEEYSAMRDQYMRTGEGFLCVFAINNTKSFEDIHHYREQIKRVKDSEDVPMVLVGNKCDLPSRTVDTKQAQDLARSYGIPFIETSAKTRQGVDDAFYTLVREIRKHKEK
The target of a further assay is KRas^G13D (Homo sapiens, UniProt P01116, G13D). The experiment in a line: biochemical.
Sequence of KRas^G13D (P01116 1-169 isoform P01116-2 G13D): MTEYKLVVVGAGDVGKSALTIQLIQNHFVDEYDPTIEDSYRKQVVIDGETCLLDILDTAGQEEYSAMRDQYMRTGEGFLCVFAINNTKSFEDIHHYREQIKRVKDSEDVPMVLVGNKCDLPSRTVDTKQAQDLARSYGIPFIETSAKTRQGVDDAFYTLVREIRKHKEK
The next assay addresses KRas^Q61H (Homo sapiens, UniProt P01116, Q61H). The experiment in a line: biochemical.

The text below walks through data of US12421253B2 (Mirati Therapeutics, Inc., priority 2020, dated 2025).

Sequence of KRas^Q61H (P01116 1-169 isoform P01116-2 Q61H): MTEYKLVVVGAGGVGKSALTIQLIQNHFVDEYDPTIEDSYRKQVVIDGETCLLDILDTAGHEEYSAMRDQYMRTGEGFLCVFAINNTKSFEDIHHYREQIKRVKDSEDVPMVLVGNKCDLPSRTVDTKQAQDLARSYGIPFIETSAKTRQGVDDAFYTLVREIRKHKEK
T2 sequence (P01116 1-169 isoform P01116-2 G12A): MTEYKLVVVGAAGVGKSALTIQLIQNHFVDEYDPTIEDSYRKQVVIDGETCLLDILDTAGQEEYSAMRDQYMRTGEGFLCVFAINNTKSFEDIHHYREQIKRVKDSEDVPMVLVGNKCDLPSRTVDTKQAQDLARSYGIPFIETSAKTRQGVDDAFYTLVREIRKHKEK
T3 sequence (P01116 1-169 isoform P01116-2 G12D): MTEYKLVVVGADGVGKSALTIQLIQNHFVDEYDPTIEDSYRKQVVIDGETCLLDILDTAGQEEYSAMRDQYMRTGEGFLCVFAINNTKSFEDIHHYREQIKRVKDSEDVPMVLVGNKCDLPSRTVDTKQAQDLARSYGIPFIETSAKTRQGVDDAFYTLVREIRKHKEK
T5 sequence (P01116 1-169 isoform P01116-2 G12S): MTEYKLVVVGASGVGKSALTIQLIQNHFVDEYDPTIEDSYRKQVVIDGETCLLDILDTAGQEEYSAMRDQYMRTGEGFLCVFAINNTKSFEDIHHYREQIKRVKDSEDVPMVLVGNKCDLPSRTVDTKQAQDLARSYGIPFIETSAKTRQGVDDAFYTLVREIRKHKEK
T1 sequence (P01116 1-169 isoform P01116-2): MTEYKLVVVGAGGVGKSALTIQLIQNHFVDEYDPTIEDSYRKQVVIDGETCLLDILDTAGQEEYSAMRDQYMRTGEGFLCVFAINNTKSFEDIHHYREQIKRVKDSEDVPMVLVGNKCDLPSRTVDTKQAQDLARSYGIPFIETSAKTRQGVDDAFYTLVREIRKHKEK
Procedure for KRas^G12A: (§1) The ability of a compound to bind to KRas was measured using a TR-FRET displacement assay. […] After a 60-minute incubation at room temperature, the reaction was measured using a BMG LABTECH CLARIO star Plus via TR-FRET. […] The POC values were fit to a 4-parameter IC50 equation and the IC50 value reported.
Procedure for KRas^G12C: as §1
Procedure for KRas^G12D: as §1
Procedure for KRas^G12R: as §1
Procedure for KRas^G12S: as §1
Procedure for KRas^G12V: as §1
Procedure for KRas^G13D: as §1
Procedure for KRas^Q61H: as §1
Procedure for KRas^WT: as §1

On to `CCc1cccc2cccc(N3CCc4c(nc(OCC56CCCN5CCC6)nc4NCCS(=O)(=O)N=S(C)(C)=O)C3)c12` [Example 165, N-(dimethyl(oxo)-16-sulfaneylidene)-2-((7-(8-ethylnaphthalen-1-yl)-2-((tetrahydro-1H-pyrrolizin-7a(5H)-yl)methoxy)-5,6,7,8-tetrahydropyrido[3,4-d]pyrimidin-4-yl)amino)ethane-1-sulfonamide], for which the IC50 (in general, the midpoint of a concentration-inhibition curve) was 5.92 µM at KRas^WT; 8.67 µM on KRas^G12A; 14.2 µM on KRas^G12D; 7.47 µM at KRas^G12R; 8.07 µM on KRas^G12S; 4.34 µM on KRas^G12V. Also, the 50% inhibitory concentration (IC50) against KRas^G12C came out at 3.87 µM; on KRas^G13D, 6.71 µM; against KRas^Q61H, 6.55 µM.
With `CCc1cccc2cccc(N3CCc4c(nc(OCC56CCCN5CCC6)nc4N4CCC(O)C(CO)C4)C3)c12` (stereo not drawn) [Example 109, 1-(7-(8-ethylnaphthalen-1-yl)-2-((tetrahydro-1H-pyrrolizin-7a(5H)-yl)methoxy)-5,6,7,8-tetrahydropyrido[3,4-d]pyrimidin-4-yl)-3-(hydroxymethyl)piperidin-4-ol], the IC50 was 0.519 µM on KRas^WT; 0.735 µM on KRas^G12A; 1.77 µM at KRas^G12D; 0.387 µM on KRas^G12R; 0.612 µM at KRas^G12S; 0.69 µM at KRas^G12V. Also, the half-maximal inhibitory concentration (IC50) against KRas^G12C came to 0.456 µM; against KRas^G13D, 0.893 µM; on KRas^Q61H, 0.898 µM.
As to `CCc1cccc2cccc(N3CCc4c(nc(OCC56CCCN5CCC6)nc4N4CCCC(NC(=O)N(C)C)C4)C3)c12` (stereo not drawn) [Example 91, 3-(1-(7-(8-ethylnaphthalen-1-yl)-2-((tetrahydro-1H-pyrrolizin-7a(5H)-yl)methoxy)-5,6,7,8-tetrahydropyrido[3,4-d]pyrimidin-4-yl)piperidin-3-yl)-1,1-dimethylurea], the concentration for half-maximal inhibition (IC50) came out at 0.765 µM at KRas^WT; 0.292 µM on KRas^G12A; 1.04 µM on KRas^G12D; 0.229 µM at KRas^G12R; 0.459 µM at KRas^G12S; 0.435 µM at KRas^G12V. Besides, the results for the IC50 on KRas^G12C, on KRas^G13D and on KRas^Q61H were 0.382 µM, 0.919 µM and 0.963 µM, respectively.
Turning to `CCc1cccc2cccc(N3CCc4c(nc(OCC56CCCN5CCC6)nc4N4CC(CO)OC5(CCC5)C4)C3)c12` (stereo not drawn) [Example 129, (8-(7-(8-ethylnaphthalen-1-yl)-2-((tetrahydro-1H-pyrrolizin-7a(5H)-yl)methoxy)-5,6,7,8-tetrahydropyrido[3,4-d]pyrimidin-4-yl)-5-oxa-8-azaspiro[3.5]nonan-6-yl)methanol], the IC50 on KRas^WT is 2.21 µM; at KRas^G12A it was 2.97 µM; on KRas^G12D, 16 µM; on KRas^G12R, 0.76 µM; on KRas^G12S it was 2.14 µM; on KRas^G12V, 2.41 µM. In addition, the IC50 against KRas^G12C was determined as 1.3 µM; on KRas^G13D, 3.22 µM; on KRas^Q61H, 2.43 µM.
With `CCc1cccc2cccc(N3CCc4c(nc(OCC56CCCN5CCC6)nc4N4CC(C)CC(C(N)=O)C4)C3)c12` (stereo not drawn) [Example 105, 1-(7-(8-ethylnaphthalen-1-yl)-2-((tetrahydro-1H-pyrrolizin-7a(5H)-yl)methoxy)-5,6,7,8-tetrahydropyrido[3,4-d]pyrimidin-4-yl)-5-methylpiperidine-3-carboxamide], the IC50 turned out to be 0.469 µM on KRas^WT; 0.382 µM on KRas^G12A; 0.607 µM at KRas^G12D; 0.461 µM on KRas^G12R; 0.385 µM on KRas^G12S; 0.368 µM at KRas^G12V. Moreover, the half-maximal inhibitory concentration (IC50) is 0.457 µM against KRas^G12C, 0.566 µM at KRas^G13D and 0.6 µM on KRas^Q61H.
For `CCc1cccc2cccc(N3CCc4c(nc(OCC56CCCN5CCC6)nc4N4C[C@@H]5C(=O)NC(=O)[C@@H]5C4)C3)c12` [Example 11, (3aR,6aS)-5-(7-(8-ethylnaphthalen-1-yl)-2-((tetrahydro-1H-pyrrolizin-7a(5H)-yl)methoxy)-5,6,7,8-tetrahydropyrido[3,4-d]pyrimidin-4-yl)tetrahydropyrrolo[3,4-c]pyrrole-1,3(2H,3aH)-dione], the IC50 on KRas^WT was found to be 0.051 µM; at KRas^G12A it was 0.045 µM; on KRas^G12D, 0.022 µM; on KRas^G12R, 0.042 µM; at KRas^G12S it was 0.015 µM; at KRas^G12V, 0.018 µM. For the same compound, the results for the IC50 on KRas^G12C, at KRas^G13D and against KRas^Q61H were 0.041 µM, 0.042 µM and 0.05 µM, respectively.
Consider `CCc1cccc2cccc(N3CCc4c(nc(OCC56CCCN5CCC6)nc4N4CCCC(c5nc(C)c(C)[nH]5)C4)C3)c12` (stereo not drawn) [Example 120, 4-(3-(4,5-dimethyl-1H-imidazol-2-yl)piperidin-1-yl)-7-(8-ethylnaphthalen-1-yl)-2-((tetrahydro-1H-pyrrolizin-7a(5H)-yl)methoxy)-5,6,7,8-tetrahydropyrido[3,4-d]pyrimidine], for which the IC50 was found to be 1.81 µM at KRas^WT; 1.53 µM on KRas^G12A; 6.38 µM on KRas^G12D; 1.32 µM on KRas^G12R; 2.48 µM at KRas^G12S; 4.21 µM on KRas^G12V. Besides, the figures for the half-maximal inhibitory concentration (IC50) at KRas^G12C, on KRas^G13D and on KRas^Q61H were 0.573 µM, 2.01 µM and 2.1 µM, respectively.
With `CCc1cccc2cccc(N3CCc4c(nc(OCC56CCCN5CCC6)nc4N4CCC(O)CC(C)C4)C3)c12` (stereo not drawn) [Example 92, 1-(7-(8-ethylnaphthalen-1-yl)-2-((tetrahydro-1H-pyrrolizin-7a(5H)-yl)methoxy)-5,6,7,8-tetrahydropyrido[3,4-d]pyrimidin-4-yl)-6-methylazepan-4-ol], the IC50 on KRas^WT came out at 0.232 µM; at KRas^G12A it was 0.303 µM; at KRas^G12D, 0.532 µM; at KRas^G12R, 0.279 µM; on KRas^G12S, 0.342 µM; on KRas^G12V it was 0.295 µM. Moreover, the IC50 on KRas^G12C was found to be 0.348 µM; against KRas^G13D, 0.247 µM; against KRas^Q61H, 0.325 µM.
As for `CCc1cccc2cccc(N3CCc4c(nc(OCC56CCCN5CCC6)nc4NCc4nnc(N)o4)C3)c12` [Example 136, 5-(((7-(8-ethylnaphthalen-1-yl)-2-((tetrahydro-1H-pyrrolizin-7a(5H)-yl)methoxy)-5,6,7,8-tetrahydropyrido[3,4-d]pyrimidin-4-yl)amino)methyl)-1,3,4-oxadiazol-2-amine], the IC50 at KRas^WT worked out at 1.56 µM; on KRas^G12A, 1.54 µM; at KRas^G12D, 3.39 µM; on KRas^G12R it was 1.63 µM; at KRas^G12S, 1.99 µM; on KRas^G12V, 0.868 µM. Besides, the IC50 on KRas^G12C was found to be 0.969 µM; on KRas^G13D, 3.28 µM; at KRas^Q61H, 2.3 µM.
Turning to `CCc1cccc2cccc(N3CCc4c(nc(OCC56CCCN5CCC6)nc4N4CC[C@H]5C(=O)NC[C@H]5C4)C3)c12` [Example 141, (3aS,7aR)-5-(7-(8-ethylnaphthalen-1-yl)-2-((tetrahydro-1H-pyrrolizin-7a(5H)-yl)methoxy)-5,6,7,8-tetrahydropyrido[3,4-d]pyrimidin-4-yl)octahydro-1H-pyrrolo[3,4-c]pyridin-1-one], the IC50 on KRas^WT was 1.61 µM; at KRas^G12A, 2.95 µM; at KRas^G12D it was 8.52 µM; on KRas^G12R it was 1.64 µM; at KRas^G12S it was 2.49 µM; on KRas^G12V, 1.26 µM. Further, the IC50 is 2.3 µM at KRas^G12C, 1.2 µM at KRas^G13D and 1.61 µM against KRas^Q61H.
As for `CCc1cccc2cccc(N3CCc4c(nc(OCC56CCCN5CCC6)nc4N4CCCn5nc(C)cc5C4)C3)c12` [Example 56, 7-(8-ethylnaphthalen-1-yl)-2-((hexahydro-1H-pyrrolizin-7a-yl)methoxy)-4-(2-methyl-7,8-dihydro-4H-pyrazolo[1,5-a][1,4]diazepin-5(6H)-yl)-5,6,7,8-tetrahydropyrido[3,4-d]pyrimidine], the 50% inhibitory concentration (IC50) at KRas^WT stood at 5.12 µM; on KRas^G12A, 3.01 µM; at KRas^G12D, 0.874 µM; at KRas^G12R, 1.81 µM; at KRas^G12S it was 2.03 µM; on KRas^G12V, 1.62 µM. Moreover, the IC50 on KRas^G12C was determined as 1.65 µM; on KRas^G13D it was 5.72 µM; on KRas^Q61H, 5.56 µM.
Regarding `CCc1cccc2cccc(N3CCc4c(nc(OCC56CCCN5CCC6)nc4N4CCCC(c5cn(C)nn5)C4)C3)c12` (stereo not drawn) [Example 118, 7-(8-ethylnaphthalen-1-yl)-4-(3-(1-methyl-1H-1,2,3-triazol-4-yl)piperidin-1-yl)-2-((tetrahydro-1H-pyrrolizin-7a(5H)-yl)methoxy)-5,6,7,8-tetrahydropyrido[3,4-d]pyrimidine], the IC50 at KRas^WT stood at 1.95 µM; on KRas^G12A, 0.88 µM; at KRas^G12D it was 1.8 µM; on KRas^G12R it was 0.558 µM; on KRas^G12S, 0.917 µM; at KRas^G12V it was 0.948 µM. Further, the half-maximal inhibitory concentration (IC50) was 0.652 µM at KRas^G12C, 1.57 µM at KRas^G13D and 1.49 µM on KRas^Q61H.
For the compound `CCc1cccc2cccc(N3CCc4c(nc(OCC56CCCN5CCC6)nc4N4CCCC(N5CCCS5(=O)=O)C4)C3)c12` (stereo not drawn) [Example 85, 2-(1-(7-(8-ethylnaphthalen-1-yl)-2-((tetrahydro-1H-pyrrolizin-7a(5H)-yl)methoxy)-5,6,7,8-tetrahydropyrido[3,4-d]pyrimidin-4-yl)piperidin-3-yl)isothiazolidine 1,1-dioxide], the IC50 on KRas^WT came to 0.14 µM; on KRas^G12A, 0.223 µM; at KRas^G12D, 1.03 µM; on KRas^G12R, 0.399 µM; on KRas^G12S, 0.263 µM; on KRas^G12V it was 0.491 µM. Also, the figures for the IC50 at KRas^G12C, on KRas^G13D and against KRas^Q61H were 0.274 µM, 0.186 µM and 0.213 µM, respectively.
